{"source": "paper doi:10.1101/2022.12.02.518844v2", "about": "(bioRxiv, 2022)", "test_system": "1057 cells (GRPR^pos)", "test": "Cell growth of GRPR^pos mouse melanoma cells", "assay_type": "cell-based", "details": "1 µM GRPR inhibitor + 10 nM GRP, low-serum medium, 48 h"}
{"smiles": "COc1ccc(C2(CNC(=O)[C@](C)(Cc3c[nH]c4ccccc34)NC(=O)Nc3ccc([N+](=O)[O-])cc3)CCCCC2)nc1", "note": "[PD-176252]", "values": [{"measurement": "GRP-induced growth assessed by MTT", "result": "same blocking effect"}]}
